In patent US20080182859A1 (Curis, Inc., priority 2006, published 2008):
Where a name gives a salt, the structure may show the parent alone.

Columns and labels:
[1] = system: sonic hedgehog pathway; test: Hedgehog pathway Gli-luciferase reporter assay, TM3 cells; assay type: cell-based; conditions: TM3 mouse Leydig cells
Text: (§1) Mouse (TM3: mouse Leydig cells; S12: mouse embryonic mesenchymal cells) and human (Daoy: human medulloblastoma cell; HepM: human embryonic palatal mesenchymal cell) cell lines are used to screen small molecules for their ability to modulate the activity of the sonic hedgehog pathway (Table 1, Table 2, and Table 3). Stable hedgehog pathway reporter cell lines are established by specific antibiotic selection following transfection of a reporter plasmid containing a luciferase gene located directly downstream from the gli promoter. Consequently, any observable changes in cellular luciferase activity may be attributed to changes in sonic hedgehog pathway activity in mouse and human cells, respectively, since gli is the major by-product of this pathway. To calculate activity, we generate an eleven point dose curve for each compound using 1:3 dilutions in 96 well assay plates. Each plate tested also contains low and high control to establish maximal pathway activation so to establish/compare a percentage activation of each tested compound (AMAX) on respective plates. Also we calculate EC50 values, or a concentration where the pathway will be exactly 50% activated, for each tested compound to determine potency. In these cell lines, compounds that register >20% AMAX values are considered active.
(§2) Stable hedgehog pathway reporter cell lines are established following specific antibiotic selection following transfection of a reporter plasmid In short, typically cells are plated in MicroTiter-plates at 10,000-20,000 cells per well, in growth media (containing 10%-20% FBS). After 48-72 hrs (HGL and DGL respectively) the media in the assay plates is switched to low-serum containing media (0.5% FBS). At that time compounds are added (at 1-5 μM) to the assay plates, in the presence or absence of hedgehog protein (octyl-modified version; 1-5 ng/ml). After another 24 hrs of incubation, the media from the assay plates is discarded and replaced with luciferase assay-mix. Subsequently, plates are incubated at RT for ˜15-30 mins and then read in a luminometer. [note: addition of the Hedgehog protein, although not critical, will sensitize the assay allowing the identification of weak actives].

[2] = system: sonic hedgehog pathway; test: Human hedgehog reporter assay Daoy-GliLuc (DGL); assay type: cell-based; conditions: Daoy human medulloblastoma cells, Gli-luciferase reporter; read-out: Daoy Avg. EC50
Text: as §1, §2

Row | EC50 [1] [nM] | SMILES | EC50 [2] [nM]
1 | 250 to 1000 | CN[C@H]1CC[C@H](N(Cc2cc(-c3ccc(C(F)(F)F)cc3)ccc2F)C(=O)c2sc3ccccc3c2Cl)CC1 [Compound 422, 3-Chloro-benzo[b]thiophene-2-carboxylic acid (4-fluoro-4′-trifluoromethyl-biphenyl-3-ylmethyl)-(4-methylamino-cyclohexyl)-amide trifluoroacetate] | 
2 | 1000 to 2500 | CN[C@H]1CC[C@H](N(Cc2cc(-c3ccc(NC(C)=O)cc3)ccc2F)C(=O)c2sc3ccccc3c2Cl)CC1 [Compound 429, 3-Chloro-benzo[b]thiophene-2-carboxylic acid (4′-acetylamino-4-fluoro-biphenyl-3-ylmethyl)-(4-methylamino-cyclohexyl)-amide trifluoroacetate] | 
3 | 1000 to 2500 | CN[C@H]1CC[C@H](N(Cc2cc(-c3ccc(N(C)C(C)=O)cc3)ccc2F)C(=O)c2sc3ccccc3c2Cl)CC1 [Compound 430, 3-Chloro-benzo[b]thiophene-2-carboxylic acid [4′-(acetyl-methyl-amino)-4-fluoro-biphenyl-3-ylmethyl]-(4-methylamino-cyclohexyl)-amide trifluoroacetate] | 
4 | 250 to 1000 | CNc1ccc(-c2ccc(F)c(CN(C(=O)c3sc4ccccc4c3Cl)[C@H]3CC[C@H](NC)CC3)c2)cc1 [Compound 432, 3-Chloro-benzo[b]thiophene-2-carboxylic acid (4-fluoro-4′-methylamino-biphenyl-3-ylmethyl)-(4-methylamino-cyclohexyl)-amide dihydrochloride] | 
5 | 50 to 250 | CN[C@H]1CC[C@H](N(Cc2cc(-c3ccc(NC=O)cc3)ccc2F)C(=O)c2sc3ccccc3c2Cl)CC1 [Compound 431, 3-Chloro-benzo[b]thiophene-2-carboxylic acid (4-fluoro-4′-formylamino-biphenyl-3-ylmethyl)-(4-methylamino-cyclohexyl)-amide trifluoroacetate] | 
6 | 250 to 1000 | CN[C@H]1CC[C@H](N(Cc2cc(-c3ccc(C)cc3)ccc2F)C(=O)c2sc3ccccc3c2Cl)CC1 [Compound 427, 3-Chloro-benzo[b]thiophene-2-carboxylic acid (4-fluoro-4′-methyl-biphenyl-3-ylmethyl)-(4-methylamino-cyclohexyl)-amide trifluoroacetate] | 
7 | 250 to 1000 | CN[C@H]1CC[C@H](N(Cc2cc(-c3ccc(Cl)cc3)ccc2F)C(=O)c2sc3ccccc3c2Cl)CC1 [Compound 428, 3-Chloro-benzo[b]thiophene-2-carboxylic acid (4′-chloro-4-fluoro-biphenyl-3-ylmethyl)-(4-methylamino-cyclohexyl)-amide trifluoroacetate] | 

Second part, the molecule before the results:

Row | SMILES | EC50 [1] [nM] | EC50 [2] [nM]
8 | CCOc1ccc(-c2cnc(N(C)C)nc2)cc1CN(C(=O)c1sc2ccccc2c1Cl)[C@H]1CC[C@H](NC)CC1 [Compound 401, 3-Chloro-benzo[b]thiophene-2-carboxylic acid [5-(2-dimethylamino-pyrimidin-5-yl)-2-ethoxy-benzyl]-(4-methylamino-cyclohexyl)-amide dihydrochloride] | 1000 to 2500 | 
9 | CCOc1ccc(-c2ccc(OC)cc2)cc1CN(C(=O)c1sc2ccccc2c1Cl)[C@H]1CC[C@@H](NC)CC1 [Compound 312, 3-Chloro-benzo[b]thiophene-2-carboxylic acid (4-ethoxy-4′-methoxy-biphenyl-3-ylmethyl)-(4-methylamino-cyclohexyl)-amide hydrochloride] |  | 50 to 250
10 | CN[C@H]1CC[C@H](N(Cc2cc(-c3ccnc(C(C)=O)c3)ccc2OC)C(=O)c2sc3c(F)ccc(F)c3c2Cl)CC1 [Compound 407, 3-Chloro-4,7-difluoro-benzo[b]thiophene-2-carboxylic acid [5-(2-acetyl-pyridin-4-yl)-2-methoxy-benzyl]-(4-methylamino-cyclohexyl)-amide dihydrochloride] | < 50 | 
11 | CN[C@H]1CC[C@H](N(Cc2cc(-c3ccc(OC)cc3)ccc2F)C(=O)c2sc3ccccc3c2Cl)CC1 [Compound 421, 3-Chloro-benzo[b]thiophene-2-carboxylic acid (4-fluoro-4′-methoxy-biphenyl-3-ylmethyl)-(4-methylamino-cyclohexyl)-amide trifluoroacetate] | 250 to 1000 | 
